Assay results reported in publication PMC3292407 (The Journal of Neuroscience, 2012).

Columns and labels:
GABAARs [1] = format: cell-based, rat; conditions: flumazenil (10 and 100 μM shown), cultured neurons
rats = experiment: Loss of Righting Reflex
GABAARs [2] = format: cell-based, rat

LORR duration (rats; flumazenil 20 mg/kg i.p. alone (F20)) [min]	LORR duration (rats; flumazenil 200 mg/kg i.p. alone (F200)) [min]	LORR induction (rats; flumazenil 20, 200 mg/kg alone)	SMILES	Effect on DHM (1 μM) enhancement of Itonic and mIPSCs (GABAARs [1])	Effect on EtOH-induced LORR (rats; flumazenil 10 mg/kg co-injected with EtOH 3 g/kg (E3+F10), vs E3-group)	LORR duration (rats; flumazenil 10 mg/kg with EtOH 3 g/kg and DHM 3 mg/kg (E3+D3+F10)) [min]	LORR duration (rats; flumazenil 10 mg/kg with EtOH 3 g/kg and DHM 10 mg/kg (E3+D10+F10)) [min]	LORR duration (rats; flumazenil 30 mg/kg with EtOH 3 g/kg and DHM 3 mg/kg (E3+D3+F30)) [min]	Effect on EtOH-induced potentiation of Itonic and mIPSCs (GABAARs [2])
0	0	did not induce LORR	CCOC(=O)c1ncn2c1CN(C)C(=O)c1cc(F)ccc1-2 [flumazenil, reference compound]	inhibited the DHM enhancement on GABAAR-currents in a concentration-dependent manner	did not alter LORR	56.1 ± 4.6	29.3 ± 4.8	58.2 ± 3.9	–
–	–	–	O=c1c(O)c(-c2ccc(O)c(O)c2)oc2cc(O)cc(O)c12 [quercetin, reference compound]	–	–	–	–	–	did not change EtOH-induced potentiation
